Experimental data: US20110020843A1, “LABEL-FREE METHODS RELATED TO PHOSPHODIESTERASES” (priority 2009, published 2011)
Read-outs that look alike come from different tables or passages of the source. Each block holds one compound with its values, some of them ahead of it.

Experiments:
[1] = system: quiescent A431 cells (endogenous PDE4 isoforms); assay: Label-free Epic RWG biosensor DMR assay of PDE inhibitors in synchronized quiescent A431 cells; assay type: cell-based, human; conditions: for DMR signal induced by PDE inhibitor: each at 12.5 micromolar, 22k cells per well, synchronized in HBSS under low CO2 for 2 hrs, vs vehicle; for DMR signal upon stimulation: synchronized in HBSS buffer for a shorter time (<90 min), data not shown
Protocol: Cells were typically grown using ˜1 to 2×10^4 cells per well at passage 3 to 15 suspended in 50 μl of the corresponding culture medium in the biosensor microplate, and were cultured at 37° C. under air/5% CO2 for ˜1 day. Except for A431 which was subject to ˜20 hr starvation through continuously culture in the serum-free DMEM, the other cell types were directly assayed without starvation.
Epic® wavelength interrogation system (Corning Inc., Corning, N.Y.) was used for whole cell sensing. This system consists of a temperature-control unit, an optical detection unit, and an on-board liquid handling unit with robotics. The detection unit is centered on integrated fiber optics, and enables kinetic measures of cellular responses with a time interval of ˜15 sec. The compound solutions were introduced by using the on-board liquid handling unit (i.e., pippetting).
The RWG biosensor is capable of detecting minute changes in local index of refraction near the sensor surface. Since the local index of refraction within a cell is a function of density and its distribution of biomass (e.g., proteins, molecular complexes), the biosensor exploits its evanescent wave to non-invasively detect ligand-induced dynamic mass redistribution in native cells. The evanescent wave extends into the cells and exponentially decays over distance, leading to a characteristic sensing volume of ˜150 nm, implying that any optical response mediated through the receptor activation only represents an average over the portion of the cell that the evanescent wave is sampling. The aggregation of many cellular events downstream the receptor activation determines the kinetics and amplitudes of a ligand-induced DMR.
All studies were carried out at a controlled temperature (28° C.). At least two independent sets of experiments, each with at least three replicates, were performed.
We further examined the DMR signal, if any, of the quiescent A431 cells upon treatment with PDE inhibitors. […] The quiescent A431 cells obtained under the same culture condition were used. Here the initial seeding numbers of cells were relatively low (˜20K cells per well in a 384 well Epic biosensor microplate tissue culture treated). […] After washing with the serum free medium, the cells were continuously cultured in the serum free medium for another 24 hrs to reach a quiescent state. Here the quiescent state was largely achieved through serum withdrawl. […] The cell membrane bound carbonic anahydrase is a known sensor for CO2 level.
In FIG. 4 the quiescent cells were achieved primarily through serum withdrawl. We were interested in the quiescent cells achieved through both contact inhibition and serum withdrawl. To do so, much higher initial seeding numbers of cells (>=25k cells per well for the 384 well Epic biosensor microplate) were used. […] Here both quiescent cells were subject to the same synchronization condition (2 hr incubation in the HBSS assay solution in a low CO2 environment).
Here the quiescent A431 cells were used using 22k cells per well in 384 well Epic biosensor microplates, followed by one day (˜24 hrs) culture in serum medium and 1 day (˜24 hrs) serum free medium, and sequential synchronization in the HBSS buffer solution under a relatively low CO2 environment for 2 hrs. […] For comparison, the DMR signal of cells stimulated with the buffer only (“Vehicle”) were included.

[2] = system: intracellular cAMP level of A431 cells; assay: Chemiluminescence quantification of cyclic AMP in whole cell lysate; assay type: cell-based, human
Protocol: A431 cells were seeded in 96 well TCT microplate at 80000 cells/well, cultured for 20 hrs and starved for an extra 20 hrs. Cells were washed two time with HBSS and incubated with 100 μl of HBSS, Leibovitz's L-15 medium (Gibco) or 1 μM of Acetozamine (Sigma) in HBSS for 2 hrs in the Epic instrument. […] The medium or buffer was removed and cells were lysed in 100 μm al of lysis buffer (from cAMP HTS immunoassay kit, Millipore) containing 1 mM IBMX. 50 μl of cell extracts as well as cAMP standard were then analyzed using the same procedure described by the vendor.
A431 Cells were cultured in a serum rich medium on Corning tissue culture treated 96 well microplate until it reached a high confluency (˜95%). After washing, the cells were continuously cultured in a serum free medium for overnight. At this point, the cells were at ˜100% confluency. After washing with corresponding solution, the cells are incubated at the same low CO2 environment (˜2% CO2) for 2 hr. The cells were then lysed with a cell lysis buffer containing 100 micromolar IBMX to block the PDE activity, followed by cAMP measurements, using the protocol as recommended by the supplier.

[3] = molecular target: endogenous Gs-coupled β2-adrenergic receptor (Homo sapiens, UniProt P07550); conditions: A431 cells; Epic DMR vs whole cell cAMP kit (FIG. 3)
Chain of endogenous Gs-coupled β2-adrenergic receptor (P07550 whole entry): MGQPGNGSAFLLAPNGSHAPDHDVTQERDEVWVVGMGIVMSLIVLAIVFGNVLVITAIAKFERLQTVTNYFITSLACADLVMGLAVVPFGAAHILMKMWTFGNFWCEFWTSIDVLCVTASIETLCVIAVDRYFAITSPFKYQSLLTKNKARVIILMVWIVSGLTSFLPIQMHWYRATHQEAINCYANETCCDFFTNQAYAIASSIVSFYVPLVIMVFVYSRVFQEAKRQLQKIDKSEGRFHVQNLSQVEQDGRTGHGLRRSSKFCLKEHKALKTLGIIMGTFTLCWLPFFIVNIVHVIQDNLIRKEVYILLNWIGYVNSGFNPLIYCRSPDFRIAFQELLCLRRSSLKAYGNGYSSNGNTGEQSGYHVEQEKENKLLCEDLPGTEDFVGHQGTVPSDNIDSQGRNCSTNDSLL
Protocol: For biosensor cellular assays, compound solutions were made by diluting the stored concentrated solutions with the HBSS (1× Hanks balanced salt solution, plus 20 mM Hepes, pH 7.1), and transferred into a 384 well polypropylene compound storage plate to prepare a compound source plate. Two compound source plates were made separately when a two-step assay was performed. In parallel, the cells were washed twice with the HBSS and maintained in 30 μl of the HBSS to prepare a cell assay plate. Both the cell assay plate and the compound source plate(s) were then incubated in the hotel of the reader system. After incubation the baseline wavelengths of all biosensors in the cell assay microplate were recorded and normalized to zero. Afterwards, a 2 to 10 min continuous recording was carried out to establish a baseline, and to ensure that the cells reached a steady state. Cellular responses were then triggered by transferring 10 μl of the compound solutions into the cell assay plate using the on-board liquid handler.

Compound: Cc1ccc([N+](=O)[O-])cc1S(=O)(=O)N(C)C [BRL-50481]
DMR signal induced by PDE inhibitor [1]: did not result in any detectable DMR signals

EC50 ([1]; quiescent A431 (~20K cells per well, serum withdrawl), the three synchronized conditions wherein IBMX led to a detectable DMR signal, read-out: potency of IBMX-induced DMR signal (EC50)): ~10 µM
Compound: CC(C)Cn1c(=O)n(C)c(=O)c2[nH]cnc21 [IBMX]
impact on intracellular cAMP levels (whole cell lysate) ([2]; 10 nanomolar to 100 micromolar, all synchronization conditions, data not shown): little impact
IBMX-induced DMR signal ([1]; quiescent A431 synchronized in CO2 independent medium L-15, highest doses examined (FIG. 4c)): little DMR signals
IBMX-induced DMR signal ([1]; synchronized in 1×HBSS 20 mM Hepes pH 7.1 with or without acetamolamide, low CO2, 2 hr (FIG. 4A, 4B)): dose-dependent and robust DMR signal
IBMX-induced DMR signal ([1]; synchronized in CO2 independent L-15 medium containing acetamolamide at 1 micromolar (FIG. 4D)): robust DMR signal
DMR signal upon stimulation [1]: inconsistent DMR signal

Compound: CCCn1c(=O)c(C)cn2nc(N)nc12 [ICI63197]
DMR signal induced by PDE inhibitor [1]: Gs-like DMR signal

Compound: COCc1nc2c([nH]1)c(=O)n(C)c(=O)n2CC(C)C [MMPX]
DMR signal induced by PDE inhibitor [1]: did not result in any detectable DMR signals

Compound: Clc1cccc(Nc2nnc(-c3ccccc3)c3ccccc23)c1 [MY-5445]
DMR signal induced by PDE inhibitor [1]: did not result in any detectable DMR signals

EC50 ([1]; Homo sapiens, A-431, quiescent cells achieved through both contact inhibition and serum withdrawl (>=25k cells per well), 2 hr incubation in HBSS, low CO2, read-out: EC50 of DMR response): 0.25 µM
Compound: COc1ccc([C@@H]2CNC(=O)C2)cc1OC1CCCC1 [R-rolipram]
DMR signal induced by PDE inhibitor [1]: Gs-like DMR signal
DMR signal upon stimulation [1]: inconsistent DMR signal

Compound: CCCCOc1cc(CC2CNC(=O)N2)ccc1OC (centres unmarked) [Ro-20-1724]
DMR signal induced by PDE inhibitor [1]: Gs-like DMR signal

Compound: CCc1ccc2c(-c3cccc(Cl)c3)nc(=O)n(CC)c2n1 [YM-976]
DMR signal induced by PDE inhibitor [1]: Gs-like DMR signal

Compound: CC(=O)Nc1nnc(S(N)(=O)=O)s1 [acetazolamide]
basal cAMP level ([2]; quiescent A431 synchronized 2 hr, low CO2, in L-15 medium containing 1 micromolar acetazolamide): 0.74±0.1 pmole/160K cells

Compound: O=C1CN2Cc3c(ccc(Cl)c3Cl)N=C2N1 [anagrelide]
DMR signal induced by PDE inhibitor [1]: did not result in any detectable DMR signals

Compound: CNC[C@H](O)c1ccc(O)c(O)c1 [epinephrine]
potency to activate DMR signal relative to potency to cause whole cell cAMP accumulation [3]: much higher potency

Compound: Cc1[nH]c(=O)c(C#N)cc1-c1ccncc1 [milrinone]
DMR signal induced by PDE inhibitor [1]: did not result in any detectable DMR signals

Compound: CCCOc1ccccc1-c1nc2nn[nH]c2c(=O)[nH]1 [zaprinast]
DMR signal induced by PDE inhibitor [1]: did not result in any detectable DMR signals
